One series concerns the target T1, Ddi2 (Homo sapiens, UniProt Q5TDH0).
T1 construct: His6-Ddi2
T1 sequence (Q5TDH0 1-399): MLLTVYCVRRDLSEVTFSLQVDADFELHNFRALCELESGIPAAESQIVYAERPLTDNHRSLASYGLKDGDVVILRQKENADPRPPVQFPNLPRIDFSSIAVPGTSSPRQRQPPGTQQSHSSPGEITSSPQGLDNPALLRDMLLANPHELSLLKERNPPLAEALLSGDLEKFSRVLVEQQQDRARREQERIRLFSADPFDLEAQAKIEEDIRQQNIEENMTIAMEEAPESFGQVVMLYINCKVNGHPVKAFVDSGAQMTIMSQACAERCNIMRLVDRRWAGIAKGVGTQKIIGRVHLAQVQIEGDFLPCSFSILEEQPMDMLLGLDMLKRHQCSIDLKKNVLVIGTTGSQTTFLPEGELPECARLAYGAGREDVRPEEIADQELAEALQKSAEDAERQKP
The series is described as follows: Inhibition of cleavage of fluorescently labeled ubiquitylated NeD-sfGFP by purified His6-Ddi2 (SDS-PAGE, fluorescence imaging). Format: biochemical.

Series [1] concerns the molecule itself. The experiment in a line: SEC; His-Ddi2 after Ni-NTA on a Superdex 16/60 column in 25 mM Hepes-KOH pH 8, 40 mM potassium acetate, 10% glycerol, 1 mM DTT. On the technique in general: In gel filtration, larger molecules generally elute earlier.

A word on the EC50: it is the concentration needed to bring the measured effect to its halfway point. Higher therefore signals weaker potency.

`Cc1c(O)cccc1C(=O)N[C@@H](CSc1ccccc1)[C@H](O)CN1C[C@H]2CCCC[C@H]2C[C@H]1C(=O)NC(C)(C)C` [nelfinavir] came in with an EC50 at Ddi2 of roughly 40 µM.

B1: His6-Ddi2 (natural protein, human, UniProt Q5TDH0 1-399, looked up)
chain: MLLTVYCVRRDLSEVTFSLQVDADFELHNFRALCELESGIPAAESQIVYAERPLTDNHRSLASYGLKDGDVVILRQKENADPRPPVQFPNLPRIDFSSIAVPGTSSPRQRQPPGTQQSHSSPGEITSSPQGLDNPALLRDMLLANPHELSLLKERNPPLAEALLSGDLEKFSRVLVEQQQDRARREQERIRLFSADPFDLEAQAKIEEDIRQQNIEENMTIAMEEAPESFGQVVMLYINCKVNGHPVKAFVDSGAQMTIMSQACAERCNIMRLVDRRWAGIAKGVGTQKIIGRVHLAQVQIEGDFLPCSFSILEEQPMDMLLGLDMLKRHQCSIDLKKNVLVIGTTGSQTTFLPEGELPECARLAYGAGREDVRPEEIADQELAEALQKSAEDAERQKP
notes: Ddi2, human, from a pET16b plasmid (gift from Klara Saskova); Collected from gel filtration at a molecular weight consistent with dimerization; also called His-Ddi2; purified Ddi2; source: E. coli BL21 RIL (DE3) Codon Plus, purified (Ni-NTA, Superdex gel filtration)
As to B1, the binding result in series [1] is recorded as “binds”.

The values above are taken from paper PMC9062259, “Mammalian Ddi2 is a shuttling factor containing a retroviral protease domain that influences binding of ubiquitylated proteins and proteasomal degradation” (The Journal of Biological Chemistry, 2022).
